Source: PubChem BioAssay AID1918933 (Molecular Pharmacology Branch, DTP, NCI, 2023)
“And” between values parts separate entries of the source, which are not always exact repeats. Equal entries are not always repeated.

System: 186277-243-T-J2-PDC complex spheroid viability
Assay: Anticancer human tumor 186277-243-T-J2-PDC patient-derived colon adenocarcinoma cell line growth inhibition
Details: for viability, T/C: stronger effect = lower value
Procedure, shortened: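 Drug combinations with the LSD1 inhibitor iadademstat tested on tumor cells co-cultured as spheroids with endothelial cells and mesenchymal stem cells. Concentrations descended in half-log increments from clinical Cmax or 10 microM.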

[1] = curve of first compound, second compound 0.1 µM
[2] = curve of first compound, second compound 0.316 µM
[3] = curve of first compound, second compound 1 µM
[4] = curve of first compound, second compound 3.16 µM
[5] = curve of first compound, second compound 10 µM
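Further: 7 day exposure to compounds.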
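Wherever viability, T/C is given: 100% = DMSO vehicle control viability.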

Nc1ncn(C2CC(O)C(CO)O2)c(=O)n1 (centres undefined)
viability, T/C (compound 0.00316 µM): 93.4% and 108% | viability, T/C (compound 0.01 µM): 102% and 99.4% | viability, T/C (compound 0.0316 µM): 97.3% and 94.3% | viability, T/C (compound 0.1 µM): 113% and 112% | viability, T/C (compound 0.316 µM): 113% and 133% | viability, T/C (compound 1 µM): 104% and 141% | IC50 (curve of compound): > 1000 nM

Nc1ncn(C2CC(O)C(CO)S2)c(=O)n1 (centres undefined) + NC1CCC(NC2CC2c2ccccc2)CC1
IC50 [1]: 77.6 nM | IC50 [2]: 74 nM | IC50 [3]: 72.4 nM | IC50 [4]: 75.3 nM | IC50 [5]: 89 nM | viability, T/C (second compound 0.1 µM, first compound 0.000949 µM): 125% | viability, T/C (second compound 0.1 µM, first compound 0.003 µM): 126% | viability, T/C (second compound 0.1 µM, first compound 0.00949 µM): 132% | viability, T/C (second compound 0.1 µM, first compound 0.03 µM): 107% | viability, T/C (second compound 0.1 µM, first compound 0.0949 µM): 38.1% | viability, T/C (second compound 0.1 µM, first compound 0.3 µM): 9.48% | viability, T/C (second compound 0.316 µM, first compound 0.000949 µM): 108% | viability, T/C (second compound 0.316 µM, first compound 0.003 µM): 129% | viability, T/C (second compound 0.316 µM, first compound 0.00949 µM): 123% | viability, T/C (second compound 0.316 µM, first compound 0.03 µM): 105% | viability, T/C (second compound 0.316 µM, first compound 0.0949 µM): 34.9% | viability, T/C (second compound 0.316 µM, first compound 0.3 µM): 10.6% | viability, T/C (second compound 1 µM, first compound 0.000949 µM): 115% | viability, T/C (second compound 1 µM, first compound 0.003 µM): 125% | viability, T/C (second compound 1 µM, first compound 0.00949 µM): 146% | viability, T/C (second compound 1 µM, first compound 0.03 µM): 90% | viability, T/C (second compound 1 µM, first compound 0.0949 µM): 40.3% | viability, T/C (second compound 1 µM, first compound 0.3 µM): 11.5% | viability, T/C (second compound 3.16 µM, first compound 0.000949 µM): 119% | viability, T/C (second compound 3.16 µM, first compound 0.003 µM): 132% | viability, T/C (second compound 3.16 µM, first compound 0.00949 µM): 140% | viability, T/C (second compound 3.16 µM, first compound 0.03 µM): 109% | viability, T/C (second compound 3.16 µM, first compound 0.0949 µM): 35.7% | viability, T/C (second compound 3.16 µM, first compound 0.3 µM): 12.7% | viability, T/C (second compound 10 µM, first compound 0.000949 µM): 118% | viability, T/C (second compound 10 µM, first compound 0.003 µM): 125% | viability, T/C (second compound 10 µM, first compound 0.00949 µM): 144% | viability, T/C (second compound 10 µM, first compound 0.03 µM): 112% | viability, T/C (second compound 10 µM, first compound 0.0949 µM): 46.9% | viability, T/C (second compound 10 µM, first compound 0.3 µM): 13.3%

CC1COCCN1c1cc(-c2ccnn2C)c2ccnc(-c3ccn[nH]3)c2n1 (centres undefined)
viability, T/C (compound 0.00316 µM): 77.4% and 18.2% | viability, T/C (compound 0.01 µM): 30.1% and 14% | viability, T/C (compound 0.0316 µM): 11.1% and 8.92% | viability, T/C (compound 0.1 µM): 9.14% and 7.83% | viability, T/C (compound 0.316 µM): 10.1% and 8.98% | viability, T/C (compound 1 µM): 11.4% and 7.8% | IC50 (curve of compound): 6.15 nM and < 3.16 nM

CC(C)CC(NC(=O)CNC(=O)c1cc(Cl)ccc1Cl)B1OC(=O)CC(CC(=O)O)(C(=O)O)O1 (centres undefined) + NC1CCC(NC2CC2c2ccccc2)CC1
IC50 [1]: 20.5 nM | IC50 [2]: 20.3 nM | IC50 [3]: 18.6 nM | IC50 [4]: 19.6 nM | IC50 [5]: 19.5 nM | viability, T/C (second compound 0.1 µM, first compound 0.000316 µM): 102% | viability, T/C (second compound 0.1 µM, first compound 0.001 µM): 119% | viability, T/C (second compound 0.1 µM, first compound 0.00316 µM): 115% | viability, T/C (second compound 0.1 µM, first compound 0.01 µM): 98.8% | viability, T/C (second compound 0.1 µM, first compound 0.0316 µM): 20.6% | viability, T/C (second compound 0.1 µM, first compound 0.1 µM): 1.64% | viability, T/C (second compound 0.316 µM, first compound 0.000316 µM): 118% | viability, T/C (second compound 0.316 µM, first compound 0.001 µM): 114% | viability, T/C (second compound 0.316 µM, first compound 0.00316 µM): 117% | viability, T/C (second compound 0.316 µM, first compound 0.01 µM): 96.6% | viability, T/C (second compound 0.316 µM, first compound 0.0316 µM): 20.7% | viability, T/C (second compound 0.316 µM, first compound 0.1 µM): 1.44% | viability, T/C (second compound 1 µM, first compound 0.000316 µM): 113% | viability, T/C (second compound 1 µM, first compound 0.001 µM): 114% | viability, T/C (second compound 1 µM, first compound 0.00316 µM): 111% | viability, T/C (second compound 1 µM, first compound 0.01 µM): 87.3% | viability, T/C (second compound 1 µM, first compound 0.0316 µM): 18.3% | viability, T/C (second compound 1 µM, first compound 0.1 µM): 1.22% | viability, T/C (second compound 3.16 µM, first compound 0.000316 µM): 112% | viability, T/C (second compound 3.16 µM, first compound 0.001 µM): 107% | viability, T/C (second compound 3.16 µM, first compound 0.00316 µM): 110% | viability, T/C (second compound 3.16 µM, first compound 0.01 µM): 96.5% | viability, T/C (second compound 3.16 µM, first compound 0.0316 µM): 17.1% | viability, T/C (second compound 3.16 µM, first compound 0.1 µM): 1.04% | viability, T/C (second compound 10 µM, first compound 0.000316 µM): 105% | viability, T/C (second compound 10 µM, first compound 0.001 µM): 111% | viability, T/C (second compound 10 µM, first compound 0.00316 µM): 111% | viability, T/C (second compound 10 µM, first compound 0.01 µM): 98.5% | viability, T/C (second compound 10 µM, first compound 0.0316 µM): 15.1% | viability, T/C (second compound 10 µM, first compound 0.1 µM): 1.05%
